Experimental data taken from the SangsterLogP compilation.

| Structure (SMILES) | logP |
| --- | --- |
| CCCC(=O)OC[C@H]1O[C@@H](n2cnc3c(OC)ncnc32)[C@@H](O)[C@@H]1OC(=O)CCC | 3.67 |
| COc1ncnc2c1ncn2[C@@H]1O[C@H](COS(C)(=O)=O)[C@@H](OS(C)(=O)=O)[C@@H]1OS(C)(=O)=O | 0.58 |
| CCC(=O)OC[C@H]1O[C@@H](n2cnc3c(OC)ncnc32)[C@@H](OC(=O)CC)[C@@H]1OC(=O)CC | 2.75 |
| CCCC(=O)OC1C(CO)OC(n2cnc3c(OC)ncnc32)C1OC(=O)CCC (stereo not given) | 2.9 |
| COc1ncnc2c1ncn2[C@@H]1O[C@H](CO)[C@@H](OC(=O)Cc2ccccc2)[C@@H]1OC(=O)Cc1ccccc1 | 3.48 |
| COc1ncnc2c1ncn2[C@@H]1O[C@H](COC(=O)C(C)C)[C@@H](O)[C@@H]1OC(=O)C(C)C | 2.7 |
| COc1ncnc2c1ncn2[C@@H]1O[C@H](COC(=O)C(C)(C)C)[C@@H](O)[C@@H]1OC(=O)C(C)(C)C | 3.4 |
| CCCCC(=O)O[C@H]1[C@H](OC(=O)CCCC)[C@@H](CO)O[C@H]1n1cnc2c(OC)ncnc21 | 3.83 |
| COc1ncnc2c1ncn2[C@@H]1O[C@H](COC(C)=O)[C@@H](OC(C)=O)[C@@H]1OC(C)=O | 1.93 |
| COc1ccc(C(=O)OC[C@H]2O[C@@H](n3cnc4c(OC)ncnc43)[C@@H](OC(=O)c3ccc(OC)cc3)[C@@H]2O)cc1 | 3.65 |
| COc1ncnc2c1ncn2[C@@H]1O[C@H](COC(=O)C(C)C)[C@@H](OC(=O)C(C)C)[C@@H]1O | 3.63 |
| COc1ncnc2c1ncn2[C@@H]1O[C@H](CO)[C@@H](O)[C@@H]1O | 0.5 |
| COc1ncnc2c1ncn2[C@@H]1O[C@H](COC(=O)COc2ccccc2)[C@@H](OC(=O)COc2ccccc2)[C@@H]1O | 4.06 |
| COc1ncnc2c1ncn2[C@@H]1O[C@H](CO)[C@@H](OC(=O)C(C)C)[C@@H]1OC(=O)C(C)C | 2.82 |
| CCCCC(=O)OC[C@H]1O[C@@H](n2cnc3c(OC)ncnc32)[C@@H](OC(=O)CCCC)[C@@H]1O | 3.58 |
| COc1ncnc2c1ncn2[C@@H]1O[C@H](CO)[C@@H](OC(=O)c2ccccc2)[C@@H]1OC(=O)c1ccccc1 | 3.71 |
| COc1ncnc2c1ncn2[C@@H]1O[C@H](CO)[C@@H](OC(C)=O)[C@@H]1OC(C)=O | 1.33 |
| COc1ncnc2c1ncn2[C@@H]1O[C@H](CO)[C@@H](OC(=O)COc2ccccc2)[C@@H]1OC(=O)COc1ccccc1 | 3.4 |
| COc1ncnc2c1ncn2[C@@H]1O[C@H](COC(C)=O)[C@@H](O)[C@@H]1OC(C)=O | 1.4 |
| COc1ncnc2c1ncn2[C@@H]1O[C@H](COC(C)=O)[C@@H](OC(C)=O)[C@@H]1O | 1.75 |
| COc1ncnc2c1ncn2[C@@H]1O[C@H](COC(=O)Cc2ccccc2)[C@@H](OC(=O)Cc2ccccc2)[C@@H]1O | 4.37 |
| COc1ncnc2c1ncn2[C@@H]1O[C@H](CO)[C@@H](OC(=O)C(C)(C)C)[C@@H]1OC(=O)C(C)(C)C | 3.61 |
| CCC(=O)OC[C@H]1O[C@@H](n2cnc3c(OC)ncnc32)[C@@H](O)[C@@H]1OC(=O)CC | 2.7 |
| CCC(=O)O[C@H]1[C@H](OC(=O)CC)[C@@H](CO)O[C@H]1n1cnc2c(OC)ncnc21 | 2.07 |
| COc1ncnc2c1ncn2[C@@H]1O[C@H](COC(=O)c2ccccc2)[C@@H](O)[C@@H]1OC(=O)c1ccccc1 | 3.39 |
